Data on one substance can be found in PMC5789975, “Computer-aided Discovery of Peptides that Specifically Attack Bacterial Biofilms” (Scientific Reports, 2018).

Series [1] relates to planktonic S. aureus MRSA (SAP0017). The series is described as follows: MIC determination, broth microdilution. The class given is cell-based, Staphylococcus aureus. The settings on record: broth microdilution, ~5 × 10^5 CFU/ml, 37 °C overnight, visual read, mean of three biological replicates. On the procedure: The MIC of the synthesized peptides was determined in both Mueller Hinton Broth (MHB) and Tryptic Soy Broth (TSB) supplemented with 1% glucose, using the broth microdilution method[21] with slight modifications. Briefly, 10 μl of a 10× concentrated peptide stock solution, vancomycin antibiotic, or vehicle control (water) was placed in the bottom of a well in a 96-well polypropylene round bottom plate (Corning Inc. Corning, NY). A bacterial suspension of S. aureus MRSA (SAP0017, clinical isolate kindly provided by Dr. Tony Chow, Vancouver General Hospital) was prepared from an overnight culture to a final cell density of ~5 × 10^5 CFU/ml and 90 μl of this was added to each well.

In series [2] the test system is biofilms formed by P. aeruginosa, Escherichia coli and MRSA. The settings on record: combination with various antimicrobial agents; cited from earlier work. An excerpt: For example, when peptide 1018 was used in combination with various antimicrobial agents, it decreased the amount of drug required to treat biofilms formed by P. aeruginosa, Escherichia coli and MRSA (among others) by up to 64-fold[30]. […] It is likely that such synergistic effects would be conserved with the latest pept ...

Series [3] concerns MRSA SAP0017 biofilms grown in flow cells. The experiment in a line: Eradication of pre-formed biofilms in flow cells. In kind it is cell-based, Staphylococcus aureus. The settings on record: BM2 media, SYTO-9/propidium iodide, confocal microscopy. The method, then:
Bacterial biofilms were grown in BM2 media (62 mM potassium phosphate buffer, pH 7, 7 mM (NH4)2SO4, 2 mM MgSO4, 10 μM FeSO4 and 0.4% (wt/vol) glucose) for 48 hours followed by treatment with peptide (2 or 0.125 µM) for an additional 24 hours. The samples were stained with SYTO-9 and propidium iodide fluorescent dyes to image total and dead cells, respectively. Flow-cell images were acquired on an Olympus FluoView FV1000 confocal laser scanning microscope (Olympus Corp. Tokyo, Japan) and were analyzed with the Fiji software package.

The test system of series [4] is S. aureus (MRSA SAP0017) biofilms. The series is described as follows: Static microtitre plate antibiofilm screen (crystal violet). The class given is cell-based, Staphylococcus aureus. The settings on record: SPOT-synthesized peptides (60–70% purity), ~6.25 μM, TSB with 1% glucose, 24 h 37 °C, crystal violet A595, mean of three biological replicates; Fig. 1b matrix. The method, then:
The SPOT-synthesized peptides were evaluated for their antibiofilm activity in vitro as described previously. Briefly, 5 μl of SPOT-peptide stock solution or a corresponding serial dilution was placed in a 96-well polypropylene round bottom plate (Corning Inc. Corning, NY) and 95 μl of a 1/100 dilution of an overnight culture of MRSA SAP0017 in TSB supplemented with 1% glucose was added to each well. The plates were incubated overnight at 37 °C to allow for bacterial growth and biofilm maturation. After 24 hours, the media containing planktonic bacteria was rinsed from each well with distilled water and the remaining biomass was stained with 0.1% crystal violet. The unbound dye was rinsed away and the biofilm bound dye was suspended in 70% ethanol and the absorbance at 595 nm was recorded on a plate reader. Percent biofilm inhibition was calculated by comparison to the amount of crystal violet stain in the untreated controls (defined as 100%) and the sterility control wells (defined as 0%). Results from three separate biological replicates were averaged and outliers were identified using the modified Thompson Tau test and removed from the analysis. The antibiofilm activity of all SPOT-derived peptides was assessed at multiple concentrations (up to five 2-fold dilutions from the stock solution) and the peptide concentration yielding the largest difference in percent inhibition of biofilm growth was used in subsequent analysis.

For a further series, the system named is MRSA USA300 LAC. The experiment in a line: Murine cutaneous abscess model. The class given is in vivo, CD-1 mice. The settings on record: 14 mg/kg. On the procedure:
The in vivo activity of the identified antibiofilm peptide 3002 and the parental compound 1018 was evaluated using a recently described murine abscess model of chronic MRSA infections. All animal experiments were performed in accordance with The Canadian Council on Animal Care (CCAC) guidelines and were approved by the University of British Columbia Animal Care Committee. Briefly, the fur on the backs of 6-week old female CD-1 mice (Charles River Laboratories, Wilmington, MA) was removed by shaving and subsequent treatment with depilatory cream. MRSA USA300 LAC was grown to an optical density at 600 nm of 1 in tryptic soy broth (TSB) at which point cells were washed twice with sterile PBS and then suspended in PBS to a final cell density of 5 × 10^7 CFU/50 μL. Mice were infected with 50 μL of bacteria subcutaneously on the right flank of the back and 1 hour later, given saline (for controls) or treated with 14 mg/kg peptide (1018 or 3002) via intra-abscess injection. Mice were monitored daily and their weight as well as abscess lesion sizes (measured using a caliper) were recorded every 24 hrs. Visible dermonecrosis or white lesions (filled with pus) were considered as part of the abscess lesion while swelling/inflammation was disregarded in the abscess size measurements. Three days post-infection, abscesses were excised and homogenized using a Bead Ruptor 4 tissue homogenizer (OMNI International, Kennesaw GA) for 5 minutes and serially plated for viable CFU quantification.

For series [5], the system named is peripheral blood mononuclear cells (PBMCs). The experiment in a line: Cytotoxicity, LDH release assay. In kind it is cell-based, human. The settings on record: peptide concentrations as high as 40 µM. The method, then: The cytotoxicity and immunomodulatory activity of both 1018 and 3002 was assessed as described previously. Briefly, peripheral blood mononuclear cells (PBMCs) were collected from healthy volunteers in accordance with the University of British Columbia ethics guidelines. PBMCs were plated in Costar 96-well flat bottom tissue culture treated plates at a final density of 1 × 10^6 cells/ml in RPMI media supplemented with 10% fetal bovine serum. […] Cytotoxicity was assessed using the Cytotoxicity Detection Kit (Roche Diagnostics, Basel, Switzerland) which measures lactate dehydrogenase activity released from damaged cells. Immune modulation was characterized by measuring the production of MCP-1 chemokine by induced by peptide alone as well as the suppression of interleukin (IL)-1β from PBMCs stimulated with 10 ng/ml Pseudomonas aeruginosa PAO1 lipopolysaccharide. Levels of MCP-1 and IL-1β were quantified by enzyme linked immunosorbent assays (ELISAs) using kits from eBioscience Inc. (San Diego, CA).
(In general: LDH in the medium is a marker of cell lysis.)

“VRLIVAVRIWRR-NH2 [compound 1018, synthetic immunomodulatory cationic peptide, 12-residue derivative of bovine bactenecin; parent template, reference compound]”: the “MIC, MHB” value in series [1] (Mueller Hinton Broth) was found to be 4 µM. For the same substance, in series [1] (Tryptic Soy Broth with 1% glucose), the “MIC, TSB with 1% Glucose” value was over 64 µM. Further, the “decrease in amount of drug required to treat biofilms in combination with peptide” value in series [2] is “up to 64 fold”. Also, the “eradication of 2-day old pre-formed MRSA biofilms” value was “virtually identical to untreated controls” in series [3] (0.125 μM peptide for 24 h) and “effectively eradicated” in series [3] (2 µM peptide for 24 h). Besides, the “percent residual biofilm after treatment with peptide” value in series [4] amounted to 31%. In the series with MRSA USA300 LAC (single intra-abscess injection 1 h after infection, 3 days), the “reduction of abscess lesion size compared to untreated controls” value came out at 2.4 fold. The “effect on bacterial load recovered from the abscesses” value with MRSA USA300 LAC (single intra-abscess injection, CFU three days post-infection) is given as “neither peptide had any effect”. Besides, the “cytotoxicity (LDH release)” value in series [5] was “less than 15%”.
